Test results taken from patent US4198507A (Hoffmann-La Roche Inc., priority 1978, dated 1980).

Legend:
Mice = assay: Acute toxicity, mice p.o. (72 hours); format: in vivo
Protocol: 1. Acute Toxicity LC50 Mice p.o. (72 hours)

[1] = prior art; cited from earlier work
gastrointestinal tract = conditions: compared with the parent xanthines; prior art; cited from earlier work
[2] = prior art; cited from earlier work; remark: listed apart in the source

Row | Compound | Acute Toxicity LC50 (Mice) | water solubility (in words) [1] | further results
1 | Cn1c(=O)c2[nH]cnc2n(C)c1=O [Theophylline anhydrous, 1, 3, dimethyl xanthine] | 460 ± 35 mg | – | –
2 | Cn1cnc2c1c(=O)[nH]c(=O)n2C [theobromine sodium salicylate] | – | soluble | –
3 | theophylline calcium salicylate | – | – | tolerance in the gastrointestinal tract (gastrointestinal tract): better tolerated; reaction in aqueous solutions or suspensions [2]: alkaline reactions
4 | O=C(O)c1ccccc1O [Magnesium Sailicylate, magnesium salicylate] | 1200 ± 53 mg | – | –
5 | CC(=O)[O-].Cn1c(=O)c2[nH]cnc2n(C)c1=O.[Na+] [theophylline sodium acetate] | – | soluble in water | –
